Reference: PMC3692405, “Disease-associated mutations in CNGB3 promote cytotoxicity in photoreceptor-derived cells” (Molecular Vision, 2013)

Columns and labels:
[1] = tested on: 661W cells expressing CNGA3 plus WT CNGB3; assay: LDH-release cytotoxicity assay, cells expressing WT channels; assay type: cell-based, mouse; details: 24 h
Experimental: The mouse photoreceptor 661W cell line used in this study was generously provided by Dr. Al-Ubaidi (University of Oklahoma Health Sciences Center, Oklahoma City, OK). The 661W cells were routinely maintained in Dulbecco’s modified Eagle’s medium (Gibco, Carlsbad, CA), supplemented with 10% fetal bovine serum (Gemini Bioproducts, Sacramento, CA) and 1% penicillin/streptomycin (Gibco), at 37 °C in a humidified incubator with 5% CO2; cells were subcultured every 3–5 days. The 661W cells were transfected with pOPRSVI plasmids encoding human cone CNG channel subunits using Lipofectamine™ 2000 and OptiMEM (Life Technologies, Carlsbad, CA) according to the manufacturer’s protocol for cells in suspension. […]
For most experiments, the LDH Cytotoxicity Detection Kit (Roche Applied Science) was used according to the manufacturer’s protocol (see also [37]). […] Following treatment, half of the culture medium was transferred to another 96-well plate and the LDH released into the culture medium was measured to assess the number of damaged/dead cells. Cells in the original plate were then lysed and the total amount of cellular LDH was assessed. The percentage cytotoxicity was then calculated from the ratio of LDH concentration in the medium/cells, and was normalized to the percentage cytotoxicity in untreated cells transfected with control pOPRSVI plasmid only.

[2] = molecular target: T1, homomeric CNGA3-only channels (Homo sapiens, UniProt Q16281); assay: Inside-out patch-clamp recording of channels expressed in Xenopus oocytes (CNGA3 only); assay type: biochemical; details: +80 mV, Hill fit, mean±SEM, n=9
T1 construct: expressed in transfected cells; host or cells: Xenopus laevis oocytes injected with cRNA transcribed from pGEMHE constructs
T1 sequence (Q16281 1-694): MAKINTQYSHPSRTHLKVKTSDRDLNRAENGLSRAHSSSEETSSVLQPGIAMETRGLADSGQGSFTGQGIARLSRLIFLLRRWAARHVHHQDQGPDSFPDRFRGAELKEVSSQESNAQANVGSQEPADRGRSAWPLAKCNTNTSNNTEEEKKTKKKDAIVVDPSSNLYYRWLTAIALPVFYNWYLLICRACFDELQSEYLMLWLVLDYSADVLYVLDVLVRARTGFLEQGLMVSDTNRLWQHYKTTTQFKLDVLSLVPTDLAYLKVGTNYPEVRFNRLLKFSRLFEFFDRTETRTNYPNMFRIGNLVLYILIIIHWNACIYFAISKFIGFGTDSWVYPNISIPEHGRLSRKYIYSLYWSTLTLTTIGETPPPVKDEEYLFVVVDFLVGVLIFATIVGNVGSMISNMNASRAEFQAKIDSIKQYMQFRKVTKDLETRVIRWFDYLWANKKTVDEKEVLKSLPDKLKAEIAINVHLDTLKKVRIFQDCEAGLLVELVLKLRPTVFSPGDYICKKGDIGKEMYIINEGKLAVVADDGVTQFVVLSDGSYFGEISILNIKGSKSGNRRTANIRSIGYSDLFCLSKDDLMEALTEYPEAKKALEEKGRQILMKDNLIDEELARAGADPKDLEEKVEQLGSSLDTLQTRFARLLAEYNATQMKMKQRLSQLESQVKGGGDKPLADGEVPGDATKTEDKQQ
Experimental: For heterologous expression in Xenopus laevis oocytes, identical amounts of cDNA were linearized using SphI or NheI, and capped cRNA was transcribed in vitro using the T-7 RNA polymerase mMESSAGE mMACHINE® kit (Ambion, Austin, TX). cRNA concentrations and relative amounts were determined by denaturing gel electrophoresis and KODAK 1D image analysis software (Rochester, NY), as well as by spectrophotometry. […] Oocytes were incubated in ND96 (96 mM NaCl, 2 mM KCl, 1.8 mM CaCl2, 1 mM MgCl2, and 5 mM HEPES, pH 7.6, supplemented with 10 μg/ml gentamycin).
Two to seven days after microinjection of cRNA, patch-clamp experiments were performed using the inside-out configuration with an Axopatch 200B amplifier (Axon Instruments, Foster City, CA). Recordings were made at 20–23 °C. Data were acquired using Pulse software (HEKA Elektronik, Lambrecht, Germany). Current traces were elicited by voltage steps from a holding potential of 0 mV to +80 mV, then to −80 mV and back to 0 mV. […] We measured sensitivity to block by L-cis-diltiazem (RBI, Natick, MA) applied to the intracellular face of the patch in the presence of 0.1 μM CPT-cGMP. […] Data were analyzed using Igor (Wavemetrics, Lake Oswego, OR), SigmaPlot, and SigmaStat (Systat Software Inc., San Jose, CA). […] Statistical significance was determined using a Student t test or Mann–Whitney rank sum test, and a p value of <0.05 was considered significant.

## Nc1ncnc2c1nc(Sc1ccc(Cl)cc1)n2[C@@H]1O[C@@H]2COP(=O)(O)O[C@H]2[C@H]1O [CPT-cAMP, CPT-adenosine 3′,5′-cyclic monophosphate]
[1]; 1 µM CPT-cAMP coapplied with 0.1 µM CPT-cGMP
  relative cytotoxicity (LDH release, normalized to untreated vector-only control): 0.98±0.03

## Nc1nc2c(nc(Sc3ccc(Cl)cc3)n2[C@@H]2O[C@@H]3COP(=O)(O)O[C@H]3[C@H]2O)c(=O)[nH]1 [CPT-cGMP, 8-(4-chlorophenylthio) guanosine 3′,5′-cyclic monophosphate]
[2]
  Hill slope h, CPT-cGMP activation: 2.2±0.1
[2]; read-out: apparent CPT-cGMP affinity K1/2, CPT-cGMP (channel activation)
  EC50: 114 ± 7.9 nM
[1]; 0.1 µM CPT-cGMP
  relative cytotoxicity (LDH release, normalized to untreated vector-only control): 1.11±0.04
